Experimental data taken from PubChem BioAssay (NCI).
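How tested: cells in 96-well plates exposed to compound for 48 hours at five concentrations. At the GI50, growth is halved. The concentration for full growth arrest is given as TGI.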

Key:
Test in all cases: DTP human tumour cell line panel, 48 h
[1] = system: 786-0 renal
[2] = system: MOLT-4 leukemia
[3] = system: NCI-H460 lung
[4] = system: OVCAR-4 ovarian
[5] = system: SF-268 CNS
[6] = system: SN12C renal
[7] = system: T-47D breast
[8] = system: TK-10 renal
[9] = system: HCT-15 colon
[10] = system: SR leukemia
[11] = system: NCI-H522 lung

Row | SMILES | TGI [1] | TGI [2] | TGI [3] | TGI [4] | TGI [5] | TGI [6] | TGI [7] | TGI [8] | TGI [9] | TGI [10] | TGI [11] | GI50 [3]
1 | CNC(=O)CCNC(=O)CCC(=O)OC | > 100 µM | > 100 µM | > 100 µM | > 100 µM | > 100 µM | > 100 µM | > 100 µM | > 100 µM |  |  |  | 
2 | CCOC(=O)CCC(NC(=O)c1ccc(Nc2nc3cc(C(F)(F)F)ccc3nc2-c2ccccc2)cc1)C(=O)OCC (stereo not drawn) | > 100 µM | > 100 µM | > 100 µM | > 100 µM | > 100 µM | > 100 µM | > 100 µM | > 100 µM | > 100 µM | > 100 µM |  | 
3 | COc1ccc2c3ccc4c(c3n(C)c2c1)C(=O)c1ccccc1C4=O | > 100 µM | > 100 µM |  | > 100 µM | > 100 µM | > 100 µM |  |  | > 100 µM | > 100 µM | > 100 µM | 
4 | Cc1sc2nc3n(c(=O)c2c1C)N=C(c1ccc(Cl)cc1)CS3 | > 100 µM | > 100 µM | > 100 µM | > 100 µM | > 100 µM | > 100 µM | > 100 µM |  | > 100 µM | > 100 µM | > 100 µM | 
5 | O=C1CCCC2=C1CC1=C(CCCC1=O)N2c1cccc2ccccc12 | > 100 µM | > 100 µM | > 100 µM | > 100 µM | > 100 µM | > 100 µM |  | > 100 µM | > 100 µM | > 100 µM |  | 
6 | Cc1cc2oc(=O)[nH]c(=S)c2c(C)c1C | > 100 µM | > 100 µM | > 100 µM | > 100 µM | > 100 µM | > 100 µM |  | > 100 µM | > 100 µM | > 100 µM | > 100 µM | 
7 | N#CS/C(Cl)=C(/C(Cl)=C(Cl)Cl)[N+](=O)[O-] | 76.4 µM | 64.9 µM | > 100 µM | > 100 µM | > 100 µM | > 100 µM | > 100 µM | > 100 µM | 45.9 µM | 53.9 µM |  | 
8 | COC(=O)[C@H](Cc1ccccc1)NC(=O)N1CCN(C(=O)N[C@@H](Cc2ccccc2)C(=O)OC)CCN(C(=O)N[C@@H](Cc2ccccc2)C(=O)OC)CC1 | > 100 µM | > 100 µM | > 100 µM | > 100 µM | > 100 µM | > 100 µM | > 100 µM | > 100 µM | > 100 µM |  | > 100 µM | 
9 | [N-]=[N+]=NC1C(Br)C(=O)NC(=O)N1[C@H]1C[C@H](O)[C@@H](CO)O1 (stereo partly drawn) | > 100 µM | > 100 µM | > 100 µM | > 100 µM | > 100 µM | > 100 µM |  | > 100 µM |  |  | > 100 µM | 
10 | COC12C=CC(CC1)C1C(=O)c3c(C)c(C)n(C)c3C(=O)C12 (stereo not drawn) | > 100 µM | > 100 µM | > 100 µM |  | > 100 µM |  | > 100 µM | > 100 µM | > 100 µM | > 100 µM |  | 
11 | C=C[C@H]1CN2CCc3c([nH]c4c([C@H]5CCCN5C)c(O)ccc34)[C@@H]2C[C@@H]1C[C@H]1c2[nH]c3ccccc3c2CCN1C | 2.77 µM | 5.32 µM | 3.53 µM | 3.27 µM | 2.97 µM | 3.04 µM | 3.72 µM | 3.36 µM | 2.3 µM |  | 3.52 µM | 1.74 µM
12 | O=C1CCC2SC1CCC2=O | > 100 µM | > 100 µM | > 100 µM | > 100 µM | > 100 µM | > 100 µM |  | > 100 µM | > 100 µM |  | > 100 µM | 
13 | CC(c1cccc2ccccc12)/[N+]([O-])=C/c1ccccc1 (stereo not drawn) | > 100 µM | > 100 µM | > 100 µM |  | > 100 µM |  |  | > 100 µM |  |  | > 100 µM | 
14 | COc1cc2[nH]c(-c3cccc(N(C)C)c3)cc(=O)c2cc1OC | > 100 µM | > 100 µM | > 100 µM | > 100 µM | > 100 µM | > 100 µM |  | > 100 µM | > 64.6 µM | > 100 µM | 17.6 µM | 
15 | CCOC(=O)c1c(NC(=O)Nc2ccccc2)c(C(N)=O)c2n1CCCCC2 | > 100 µM | > 100 µM | > 100 µM | > 100 µM | > 100 µM |  | > 100 µM | > 100 µM | > 100 µM | > 100 µM |  | 
16 | COC(=N)C12C(N)=NC(OC)(OC)C1(C#N)C21C(=O)N(c2ccccc2)N=C1C (stereo not drawn) | > 100 µM | > 100 µM | > 100 µM | > 100 µM | > 100 µM | > 100 µM | > 100 µM |  | > 100 µM | > 100 µM | > 100 µM | 
17 | O=C(c1ccncc1)n1nc(-c2ccccc2)c(N=Nc2ccc([N+](=O)[O-])cc2)c1-c1ccccc1 | > 100 µM | > 100 µM |  | 28.2 µM | > 100 µM | > 100 µM |  | > 100 µM |  | > 100 µM | > 100 µM | 
18 | O=C(Cc1ccccc1)c1ccc2[nH]c(=O)oc2c1 | > 100 µM | > 100 µM | > 100 µM |  | > 100 µM | > 100 µM |  | > 100 µM | > 100 µM | > 100 µM |  | 
19 | CC(=O)c1ccc2c(c1)oc(=O)n2CCN1CCCCC1 | > 100 µM | > 100 µM | > 100 µM |  | > 100 µM | > 100 µM |  | > 100 µM | > 100 µM | > 100 µM |  | 
20 | COc1ccc(CN(CCc2c[nH]c3ccccc23)Cc2ccc(OC)cc2)cc1 | 12.6 µM | > 100 µM | > 61.7 µM | 12.7 µM | 18 µM | 2.24 µM |  | 3.97 µM | > 100 µM | > 100 µM | 8.77 µM | 
21 | CCC1(N=[N+]=[N-])C(=O)Nc2cc(C)ccc2C1=O (stereo not drawn) | > 100 µM | > 100 µM | > 100 µM | > 100 µM | > 100 µM | > 100 µM |  | > 100 µM | > 100 µM |  | 15.6 µM | 
22 | CCOC(=O)c1nc2ccc(C(F)(F)F)cc2nc1Oc1ccc(F)cc1 | > 100 µM | > 100 µM | > 100 µM | > 100 µM | > 100 µM |  | > 100 µM | > 100 µM | > 100 µM | > 100 µM |  | 
